# Laboratory results published in patent US10294202B2, “Pyrrolidinones as herbicides” (FMC Corporation, priority 2013, dated 2019).
# What was measured:
# [1] = test system: lambsquarters; test: Test E preemergence herbicide test; type: in vivo, Chenopodium album; design: key: 0 = no effect, 100 = complete control
# Source text: (§1) Seeds of plant species selected from corn (Zea mays), soybean (Glycine max), velvetleaf (Abutilon theophrasti), lambsquarters (Chenopodium album), wild poinsettia (Euphorbia heterophylla), pigweed, palmer (palmer pigweed, Amaranthus palmeri), waterhemp (common waterhemp, Amaranthus rudis), surinam grass (Brachiaria decumbens), crabgrass, large (large crabgrass, Digitaria sanguinalis), crabgrass, Brazil (Brazilian crabgrass, Digitaria horizontalis), panicum, fall (fall panicum, Panicum dichotomiflorum), foxtail, giant (giant foxtail, Setaria faberii), foxtail, green (green foxtail, Setaria viridis), goosegrass (Eleusine indica), johnsongrass (Sorghum halepense), ragweed (common ragweed, Ambrosia elatior), barnyardgrass (Echinochloa crus-galli), sandbur (southern sandbur, Cenchrus echinatus), arrowleaf […] rhombifolia), ryegrass, Italian (Italian ryegrass, Lolium multiflorum), dayflower, VA (Virginia dayflower, Commelina virginica), field bindweed (Convolvulus arvensis), morningglory (Ipomoea coccinea), nightshade (eastern black nightshade, Solanum ptycanthum), kochia (Kochia scoparia), nutsedge, yellow (yellow nutsedge, Cyperus esculentus), cocklebur (common cocklebur, Xanthium strumarium), smartweed (ladysthumb smartweed, Polygonum Persicaria) and beggarticks (hairy beggarticks, Bidens pilosa), were planted into a silt loam soil and treated preemergence with test chemicals formulated in a non-phytotoxic solvent mixture which included a surfactant. Treated plants and controls were maintained in a greenhouse for 21 days, after which time all species were compared to controls and visually evaluated. Plant response ratings, summarized in Table E, are based on a scale of 0 to 100 where 0 is no effect and 100 is complete control. A dash (-) response means no test result.
# [2] = test system: soybean; test: Test E preemergence herbicide test; type: in vivo, Glycine max; design: key: 0 = no effect, 100 = complete control
# Source text: as §1
# [3] = test system: crabgrass, Brazil; test: Test E preemergence herbicide test; type: in vivo, Digitaria horizontalis; design: key: 0 = no effect, 100 = complete control
# Source text: as §1
# [4] = test system: corn; test: Test E preemergence herbicide test; type: in vivo, Zea mays; design: key: 0 = no effect, 100 = complete control
# Source text: as §1
# [5] = test system: crabgrass, large; test: Test E preemergence herbicide test; type: in vivo, Digitaria sanguinalis; design: key: 0 = no effect, 100 = complete control
# Source text: as §1
# [6] = test system: ryegrass, Italian; test: Test E preemergence herbicide test; type: in vivo, Lolium multiflorum; design: key: 0 = no effect, 100 = complete control
# Source text: as §1
# [7] = test system: foxtail, green; test: Test D pre-/postemergence herbicide test; type: in vivo, Setaria viridis; conditions: for Plant response rating: Foxtail, Green, scale 0 to 100; for Plant response rating, Foxtail, Green: scale 0 to 100 (0 no effect, 100 complete control)
# Source text: (§2) Seeds of plant species selected from bluegrass (annual bluegrass, Poa annua), blackgrass (Alopecurus myosuroides), canarygrass (littleseed canarygrass, Phalaris minor), chickweed (common chickweed, Stellaria media), galium (catchweed bedstraw, Galium aparine), bromegrass, downy (downy bromegrass, Bromus tectorum), field poppy (Papaver rhoeas), field violet (Viola arvensis), foxtail, green (green foxtail, Setaria viridis), deadnettle (henbit deadnettle, Lamium amplexicaule), ryegrass, Italian (Italian ryegrass, Lolium multiflorum), kochia (Kochia scoparia), lambsquarters (Chenopodium album), oilseed rape (Brassica napus), pigweed (Amaranthus retroflexus), chamomile (scentless chamomile, Matricaria inodora), Russian thistle (Salsola kali), speedwell (bird's-eye speedwell, Veronica persica), barley, spring (spring barley, Hordeum vulgare), wheat, spring (spring wheat, Triticum aestivum), buckwheat, wild (wild buckwheat, Polygonum convolvulus), mustard, wild (wild mustard, Sinapis arvensis), oat, wild (wild oat, Avena fatua), radish, wild (wild radish, Raphanus raphanistrum), […]), barley, winter (winter barley, Hordeum vulgare), and wheat, winter (winter wheat, Triticum aestivum) were planted into a silt loam soil and treated preemergence with test chemicals formulated in a non-phytotoxic solvent mixture which included a surfactant. At the same time, these species were planted in pots containing Redi-Earth® planting medium (Scotts Company, 14111 Scottslawn Road, Marysville, Ohio 43041) comprising spaghnum peat moss, vermiculite, wetting agent and starter nutrients and treated with postemergence applications of the test chemicals formulated in the same manner. Plants ranged in height from 2 to 18 cm (1- to 4-leaf stage). Treated plants and controls were maintained in a controlled growth environment for 7 to 21 days after which time all species were compared to controls and visually evaluated. Plant response ratings, summarized in Table D, are based on a scale of 0 to 100 where 0 is no effect and 100 is complete control. A dash (-) response means no test result.
# [8] = test system: ryegrass, Italian; test: Test D pre-/postemergence herbicide test; type: in vivo, Lolium multiflorum; conditions: for Plant response rating: Postemergence, Ryegrass, Italian, scale 0 to 100; for Plant response rating, Ryegrass, Italian: Preemergence, scale 0 to 100 (0 no effect, 100 complete control)
# Source text: as §2
# [9] = test system: chickweed; test: Test D pre-/postemergence herbicide test; type: in vivo, Stellaria media; conditions: for Plant response rating: Chickweed, scale 0 to 100; for Plant response rating, Chickweed: scale 0 to 100 (0 no effect, 100 complete control)
# Source text: as §2
# [10] = test system: bromegrass, downy; test: Test D pre-/postemergence herbicide test; type: in vivo, Bromus tectorum; conditions: for Plant response rating: Bromegrass, Downy, scale 0 to 100; for Plant response rating, Bromegrass, Downy: scale 0 to 100 (0 no effect, 100 complete control)
# Outline: (§3)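 Greenhouse pre- and postemergence screen with surfactant-containing non-phytotoxic solvent formulations. Silt loam soil served for preemergence application, and peat/vermiculite medium for postemergence application at 2–18 cm height. Visual 0–100 control ratings versus controls were recorded 7 to 21 days later.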
# [11] = test system: pigweed; test: Test D pre-/postemergence herbicide test; type: in vivo, Amaranthus retroflexus; conditions: for Plant response rating: Postemergence, Pigweed, scale 0 to 100; for Plant response rating, Pigweed: Preemergence, scale 0 to 100 (0 no effect, 100 complete control)
# Outline: as §3
structure (smiles),measurement,setting,value
O=C1NCC(c2ccc(Cl)c(Cl)c2)C1C(=O)Nc1ccccc1F (racemic) [Compound 14],"Plant response rating, Lambsquarters",[1]; 16 g ai/ha,0
same,"Plant response rating, Lambsquarters",[1]; 31 g ai/ha,0
same,"Plant response rating, Lambsquarters",[1]; 62 g ai/ha,0
same,"Plant response rating, Lambsquarters",[1]; 125 g ai/ha,50
same,"Plant response rating, Lambsquarters",[1]; 250 g ai/ha,70
same,"Plant response rating, Soybean",[2]; 16 g ai/ha,0
same,"Plant response rating, Soybean",[2]; 31 g ai/ha,0
same,"Plant response rating, Soybean",[2]; 62 g ai/ha,0
same,"Plant response rating, Soybean",[2]; 125 g ai/ha,0
same,"Plant response rating, Soybean",[2]; 250 g ai/ha,0
same,"Plant response rating, Crabgrass, Brazil",[3]; 16 g ai/ha,0
same,"Plant response rating, Crabgrass, Brazil",[3]; 31 g ai/ha,65
same,"Plant response rating, Crabgrass, Brazil",[3]; 62 g ai/ha,80
same,"Plant response rating, Crabgrass, Brazil",[3]; 125 g ai/ha,95
same,"Plant response rating, Crabgrass, Brazil",[3]; 250 g ai/ha,95
same,"Plant response rating, Corn",[4]; 16 g ai/ha,0
same,"Plant response rating, Corn",[4]; 31 g ai/ha,0
same,"Plant response rating, Corn",[4]; 62 g ai/ha,0
same,"Plant response rating, Corn",[4]; 125 g ai/ha,0
same,"Plant response rating, Corn",[4]; 250 g ai/ha,0
same,"Plant response rating, Crabgrass, Large",[5]; 16 g ai/ha,0
same,"Plant response rating, Crabgrass, Large",[5]; 62 g ai/ha,25
same,"Plant response rating, Crabgrass, Large",[5]; 125 g ai/ha,90
same,"Plant response rating, Crabgrass, Large",[5]; 250 g ai/ha,90
same,"Plant response rating, Ryegrass, Italian",[6]; 16 g ai/ha,0
same,"Plant response rating, Ryegrass, Italian",[6]; 31 g ai/ha,0
same,"Plant response rating, Ryegrass, Italian",[6]; 62 g ai/ha,0
same,"Plant response rating, Ryegrass, Italian",[6]; 125 g ai/ha,0
same,"Plant response rating, Ryegrass, Italian",[6]; 250 g ai/ha,0
O=C1NCC(c2ccc(C(F)(F)F)cc2)C1C(=O)Nc1ccccc1F (stereo not drawn) [Compound 231],Plant response rating,"[7]; Postemergence, 31 g ai/ha",10
same,Plant response rating,"[7]; Postemergence, 62 g ai/ha",65
same,Plant response rating,"[7]; Postemergence, 125 g ai/ha",70
same,Plant response rating,"[7]; Postemergence, 250 g ai/ha",70
same,"Plant response rating, Foxtail, Green","[7]; Preemergence, 62 g ai/ha",80
same,"Plant response rating, Foxtail, Green","[7]; Preemergence, 125 g ai/ha",95
same,"Plant response rating, Foxtail, Green","[7]; Preemergence, 31 g ai/ha",45
same,Plant response rating,"[7]; Preemergence, 250 g ai/ha",98
same,Plant response rating,[8]; 31 g ai/ha,0
same,Plant response rating,[8]; 62 g ai/ha,0
same,Plant response rating,[8]; 125 g ai/ha,0
same,Plant response rating,[8]; 250 g ai/ha,0
same,"Plant response rating, Ryegrass, Italian",[8]; 62 g ai/ha,0
same,"Plant response rating, Ryegrass, Italian",[8]; 125 g ai/ha,0
same,"Plant response rating, Ryegrass, Italian",[8]; 31 g ai/ha,0
same,"Plant response rating, Ryegrass, Italian",[8]; 250 g ai/ha,0
same,Plant response rating,"[9]; Postemergence, 31 g ai/ha",25
same,Plant response rating,"[9]; Postemergence, 62 g ai/ha",80
same,Plant response rating,"[9]; Postemergence, 125 g ai/ha",80
same,Plant response rating,"[9]; Postemergence, 250 g ai/ha",80
same,"Plant response rating, Chickweed","[9]; Preemergence, 62 g ai/ha",85
same,"Plant response rating, Chickweed","[9]; Preemergence, 125 g ai/ha",95
same,"Plant response rating, Chickweed","[9]; Preemergence, 31 g ai/ha",75
same,Plant response rating,"[9]; Preemergence, 250 g ai/ha",90
same,Plant response rating,"[10]; Postemergence, 31 g ai/ha",15
same,Plant response rating,"[10]; Postemergence, 62 g ai/ha",20
same,Plant response rating,"[10]; Postemergence, 125 g ai/ha",25
same,Plant response rating,"[10]; Postemergence, 250 g ai/ha",25
same,"Plant response rating, Bromegrass, Downy","[10]; Preemergence, 62 g ai/ha",0
same,"Plant response rating, Bromegrass, Downy","[10]; Preemergence, 125 g ai/ha",0
same,"Plant response rating, Bromegrass, Downy","[10]; Preemergence, 31 g ai/ha",0
same,Plant response rating,"[10]; Preemergence, 250 g ai/ha",15
same,Plant response rating,[11]; 31 g ai/ha,20
same,Plant response rating,[11]; 62 g ai/ha,35
same,Plant response rating,[11]; 125 g ai/ha,35
same,Plant response rating,[11]; 250 g ai/ha,45
same,"Plant response rating, Pigweed",[11]; 62 g ai/ha,50
same,"Plant response rating, Pigweed",[11]; 125 g ai/ha,60
same,"Plant response rating, Pigweed",[11]; 31 g ai/ha,50
same,"Plant response rating, Pigweed",[11]; 250 g ai/ha,80
O=C1NCC(c2ccc(F)c(F)c2)C1C(=O)Nc1ccccc1C(F)(F)F (racemic) [Compound 6],Plant response rating,"[7]; Postemergence, 16 g ai/ha",0
same,Plant response rating,"[7]; Postemergence, 31 g ai/ha",0
same,Plant response rating,"[7]; Postemergence, 62 g ai/ha",0
same,Plant response rating,"[7]; Postemergence, 125 g ai/ha",0
same,Plant response rating,"[7]; Postemergence, 250 g ai/ha",20
same,"Plant response rating, Foxtail, Green","[7]; Preemergence, 62 g ai/ha",0
same,"Plant response rating, Foxtail, Green","[7]; Preemergence, 16 g ai/ha",0
same,"Plant response rating, Foxtail, Green","[7]; Preemergence, 31 g ai/ha",0
same,Plant response rating,"[7]; Preemergence, 125 g ai/ha",0
same,Plant response rating,"[7]; Preemergence, 250 g ai/ha",10
same,Plant response rating,[8]; 16 g ai/ha,0
same,Plant response rating,[8]; 31 g ai/ha,0
same,Plant response rating,[8]; 62 g ai/ha,0
same,Plant response rating,[8]; 125 g ai/ha,0
same,Plant response rating,[8]; 250 g ai/ha,0
same,"Plant response rating, Ryegrass, Italian",[8]; 62 g ai/ha,0
same,"Plant response rating, Ryegrass, Italian",[8]; 125 g ai/ha,0
same,"Plant response rating, Ryegrass, Italian",[8]; 16 g ai/ha,0
same,"Plant response rating, Ryegrass, Italian",[8]; 31 g ai/ha,0
same,"Plant response rating, Ryegrass, Italian",[8]; 250 g ai/ha,0
same,Plant response rating,"[9]; Postemergence, 16 g ai/ha",0
same,Plant response rating,"[9]; Postemergence, 31 g ai/ha",0
same,Plant response rating,"[9]; Postemergence, 62 g ai/ha",0
same,Plant response rating,"[9]; Postemergence, 125 g ai/ha",10
same,Plant response rating,"[9]; Postemergence, 250 g ai/ha",30
same,Plant response rating,"[10]; Postemergence, 16 g ai/ha",0
same,Plant response rating,"[10]; Postemergence, 31 g ai/ha",0
same,Plant response rating,"[10]; Postemergence, 62 g ai/ha",0
same,Plant response rating,"[10]; Postemergence, 125 g ai/ha",0
same,Plant response rating,"[10]; Postemergence, 250 g ai/ha",0
same,"Plant response rating, Bromegrass, Downy","[10]; Preemergence, 62 g ai/ha",0
same,"Plant response rating, Bromegrass, Downy","[10]; Preemergence, 16 g ai/ha",0
same,"Plant response rating, Bromegrass, Downy","[10]; Preemergence, 31 g ai/ha",0
same,Plant response rating,"[10]; Preemergence, 125 g ai/ha",0
same,Plant response rating,"[10]; Preemergence, 250 g ai/ha",10
same,Plant response rating,[11]; 16 g ai/ha,0
same,Plant response rating,[11]; 31 g ai/ha,10
same,Plant response rating,[11]; 62 g ai/ha,10
same,Plant response rating,[11]; 125 g ai/ha,20
same,Plant response rating,[11]; 250 g ai/ha,20
same,"Plant response rating, Pigweed",[11]; 62 g ai/ha,0
same,"Plant response rating, Pigweed",[11]; 125 g ai/ha,0
same,"Plant response rating, Pigweed",[11]; 16 g ai/ha,0
same,"Plant response rating, Pigweed",[11]; 31 g ai/ha,0
same,"Plant response rating, Pigweed",[11]; 250 g ai/ha,0
